From article PMC5330453, “Synthesis and biological evaluation of dihydropyrano-[2,3-c]pyrazoles as a new class of PPARγ partial agonists” (PLoS ONE, 2017)
Values joined by “and” are separate entries in the source; they are usually repeats but may differ in a detail not shown here. Equal values may be shown once. Read-outs that look alike come from different tables or passages of the source.

Legend:
hPPARγ LBD [1] = biological target: T1, hPPARγ LBD (Homo sapiens, UniProt P37231); test: TR-FRET competitive binding assay (LanthaScreen), displacement of a fluorescent pan PPAR agonist tracer; conditions: GST-tagged PPARγ-LBD, 10 concentrations 3 nM to 500 μM, triplicate
T1 sequence (P37231 238-503 limits assumed): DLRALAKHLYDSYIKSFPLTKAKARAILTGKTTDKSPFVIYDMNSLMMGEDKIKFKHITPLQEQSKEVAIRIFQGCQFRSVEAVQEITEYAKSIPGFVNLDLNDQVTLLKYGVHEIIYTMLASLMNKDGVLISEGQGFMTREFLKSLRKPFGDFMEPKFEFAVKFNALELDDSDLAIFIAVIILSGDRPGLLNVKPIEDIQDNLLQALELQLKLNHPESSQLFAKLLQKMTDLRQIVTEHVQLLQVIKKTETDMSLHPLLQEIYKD
Method: IC50 values for respective compounds were determined by competitive binding using time-resolved fluorescence resonance energy transfer (LanthaScreen, Invitrogen) on a Victor2 microplate reader (PerkinElmer). Briefly, a terbium labeled anti-GST antibody was used to label purified GST-tagged PPARγ-LBD (ligand binding domain). Energy transfer from terbium to the tracer, a fluorescent pan PPAR agonist, enabled read-out of each test compounds’s ability to displace the tracer. RFU values from dose-response curves (triplicate sampling) for test compounds as well as positive controls (rosiglitazone) were then analyzed using GraphPad Prism [33]. An unrestrained sigmoidal (one-binding site) dose-response curve was fitted to each data set by linear regression and allowing for determination of IC50 values.

hPPARγ LBD [2] = biological target: T1, hPPARγ LBD; test: Nuclear receptor-LBD transactivation (Gal4-LBD luciferase reporter) in mouse embryo fibroblasts; format: cell-based; design: expressed in transfected cells; host or cells: mouse embryo fibroblasts (MEFs); conditions: for induction of transcriptional activation (in words): cell based transactivation assay; for transactivation selectivity towards all three PPAR subtypes: compared with PPARα and PPARδ transactivation
Excerpt: Mouse embryo fibroblasts (MEFs) were propagated in Dulbeccos Modified Eagle’s Media (DMEM) supplemented with 10% FCS and antibiotics.
Cells (Hepa 1–6 were used for PPARα whereas MEFs were used for PPARγ, PPARδ and RXRα transfections) were transfected in solution by Metafectene (Biontex) lipofection, essentially according to the manufacturer’s instructions and seeded in media (MEM or DMEM supplemented with 10% fetal calf serum and antibiotics in 96-well dishes at 24000 cells/cm^2. The transfection plasmid mix included the Gal4-responsive luciferase reporter, the expression vector for the fusion between the Gal4 DNA-binding domain and the nuclear receptor ligand binding domains, and a CMV-Renilla luciferase normalization vector (pRL-CMV, Promega). Six hours after addition of transfection mix to the cells, the media was changed to media (MEM or DMEM) supplemented with vehicle (0.1% DMSO), positive control (1 μM Rosiglitazone, 30 nM GW7647, 1 μM L165041 or 0.2 μM LG1069 for PPARγ, PPARα, PPARδ and RXRα, respectively), or compound. Approx. 18 hours later, cells were harvested and lysates analyzed for Photinus and Renilla luciferase activity by luminometry. All data points were performed in at least triplicate and each sample measured in duplicate. Luminometer raw data was analyzed in Microsoft Excel spreadsheets and presented as column graphs depicting average values of triplicates and including standard deviations.

PPARγ = system: PPARγ; design: method as in PMID 23432662; conditions: earlier study; read-out: inhibitor activity IC50; cited from earlier work
[3] = system: adipocyte differentiation; design: method as in PMID 23432662; conditions: earlier study; cited from earlier work
[4] = hPPARγ LBD ligand displacement IC50, TR-FRET
[5] = read-out: hPPARγ LBD ligand displacement IC50, TR-FRET

IC50 (hPPARγ LBD [1]; [4])	Compound	also measured
87 µM	COc1ccc(C2C(C#N)=C(N)Oc3[nH]nc(C)c32)c(C)c1C (centres unmarked) [10y, 6-Amino-4-(4-methoxy-2,3-dimethylphenyl)-3-methyl-1,4-dihydropyrano[2,3-c]pyrazole-5-carbonitrile]	
59 µM	Cc1n[nH]c2c1C(c1ccc(Cl)cc1Cl)C(C#N)=C(N)O2 (centres unmarked) [10x, 6-Amino-4-(2,4-dichlorophenyl)-3-methyl-1,4-dihydropyrano[2,3-c]pyrazole-5-carbonitrile]	
75 µM	Cc1ccc(C2C(C#N)=C(N)Oc3[nH]nc(-c4ccccc4)c32)c(C)c1 (centres unmarked) [10i, 6-Amino-4-(2,4-dimethylphenyl)-3-phenyl-1,4-dihydropyrano[2,3-c]pyrazole-5-carbonitrile]	
14 µM	Cc1cc(C)c(C2C(C#N)=C(N)Oc3[nH]nc(C)c32)cc1COc1ccc(Cl)c2cccnc12 (centres unmarked) [10s, 6-Amino-4-(5-(((5-chloroquinolin-8-yl)oxy)methyl)-2,4-dimethylphenyl)-3-methyl-1,4-dihydropyrano[2,3-c]pyrazole-5-carbonitrile]	
	Cc1nn(-c2ccccc2)c2c1C(c1ccc(Cl)cc1Cl)C(C#N)=C(N)O2 (centres unmarked) [10f]	induction of transcriptional activation (in words) (hPPARγ LBD [2]): did not induce transcriptional activation
91 µM	CCCc1n[nH]c2c1C(c1cc(C)ccc1C)C(C#N)=C(N)O2 (centres unmarked) [10p, 6-Amino-4-(2,5-dimethylphenyl)-3-propyl-1,4-dihydropyrano[2,3-c]pyrazole-5-carbonitrile]	
0.52 µM and ≤ 1 µM	Cc1ccc(C)c(C2C(C#N)=C(N)Oc3c2c(C)nn3-c2ccc(Cl)cc2)c1 (centres unmarked) [10ae, 6-Amino-1-(4-chlorophenyl)-4-(2,5-dimethylphenyl)-3-methyl-1,4-dihydropyrano[2,3-c]pyrazole-5-carbonitrile]	transactivation selectivity towards all three PPAR subtypes (hPPARγ LBD [2]): selective against PPARγ
	Cc1ccc(C)c(C2C(C#N)=C(N)Oc3[nH]nc(-c4ccccc4)c32)c1 (centres unmarked) [10g]	IC50 (hPPARγ LBD [1]; [5]): > 100 µM
215 µM and > 100 µM	Cc1nn(-c2ccccc2)c2c1C(c1ccccc1)C(C#N)=C(N)O2 (centres unmarked) [10ad, 6-Amino-3-methyl-1,4-diphenyl-1,4-dihydropyrano[2,3-c]pyrazole-5-carbonitrile]	
14 µM	CCCc1n[nH]c2c1C(c1ccc(C)cc1C)C(C#N)=C(N)O2 (centres unmarked) [10m, 6-Amino-4-(2,4-dimethylphenyl)-3-propyl-1,4-dihydropyrano[2,3-c]pyrazole-5-carbonitrile]	
15.7 µM	Cc1ccccc1C1C(C#N)=C(N)Oc2[nH]nc(Cc3ccccc3)c21 (centres unmarked) [10b, 6-Amino-3-benzyl-5(o-tolyl)-1,4-dihydropyrano[2,3-c]pyrazole-5-carbonitrile]	induction of transcriptional activation (in words) (hPPARγ LBD [2]): did not induce transcriptional activation
173 µM and > 100 µM	N#CC1=C(N)Oc2[nH]nc(-c3ccccc3)c2C1c1ccccc1 (centres unmarked) [10h, 6-Amino-3,4-diphenyl-1,4-dihydropyrano[2,3-c]pyrazole-5-carbonitrile]	
104 µM and > 100 µM	Cc1ccc(C2C(C#N)=C(N)Oc3[nH]nc(Cc4ccccc4)c32)c(C)c1 (centres unmarked) [10c, 6-Amino-3-benzyl-4-(2,4-dimethylphenyl)-1,4-dihydropyrano[2,3-c]pyrazole-5-carbonitrile]	
32 µM	Cc1cc(C)c([C@@H]2C(C#N)=C(N)Oc3n[nH]c(C)c32)cc1COc1ccc(Cl)cc1C (stereo in doubt) [compound 4]	IC50 (PPARγ): 30 µM; induction of adipocyte differentiation [3]: relatively poor induction of adipocyte differentiation
31 µM	CCCc1n[nH]c2c1C(c1ccc(Cl)cc1)C(C#N)=C(N)O2 (centres unmarked) [10n, 6-Amino-4-(4-chlorophenyl)-3-propyl-1,4-dihydropyrano[2,3-c]pyrazole-5-carbonitrile]	
14 µM	Cc1nn(-c2ccccc2)c2c1C(c1ccc(Cl)cc1Cl)C(C#N)=C(N)O2 (centres unmarked) [10ag, 6-Amino-4-(2,4-dichlorophenyl)-3-methyl-1-phenyl-1,4-dihydropyrano[2,3-c]pyrazole-5-carbonitrile]	
	Cc1ccccc1C1C(C#N)=C(N)Oc2c1c(C)nn2-c1ccc(Cl)cc1 (centres unmarked) [10af]	IC50 (hPPARγ LBD [1]; [5]): ≤ 1 µM; transactivation selectivity towards all three PPAR subtypes (hPPARγ LBD [2]): selective against PPARγ
407 µM and > 100 µM	Cc1ccc(C2C(C#N)=C(N)Oc3[nH]nc(C)c32)c(C)c1 (centres unmarked) [10aa, 6-Amino-4-(2,4-dimethylphenyl)-3-methyl-1,4-dihydropyrano[2,3-c]pyrazole-5-carbonitrile]	
